Results published in PMC6986443, “T‐495, a novel low cooperative M1 receptor positive allosteric modulator, improves memory deficits associated with cholinergic dysfunction and is characterized by low gastrointestinal side effect risk” (Pharmacology Research & Perspectives, 2020).
Like-named read-outs stand apart in the source and are kept apart here.

Experiments:
[1] = Concentrations in rat plasma and brain (IP1 study); type: in vivo; conditions: Long-Evans, po, mean ± SD; for Kp at 2 h: brain/plasma, read-out: Kp (brain‐to‐plasma concentration ratio)
Procedure: (§1) Eight‐week‐old Long‐Evans rats, 8‐ to 9‐week‐old C57BL/6J mice, and 22‐ or 29‐week‐old M1R KO mice and their WT littermates were used in this study. On the day of the experiment, animals were placed in individual cages and acclimated for more than 1 hour. A test compound or vehicle was administered 2 hours before the animals were sacrificed. […] LiCl (10 mmol/kg, s.c.) was injected 1 hour before sacrifice. In the repeated administration study, a test compound was administered to mice once daily for 13 days; on day 14, animals were treated with a test compound and LiCl (10 mmol/kg, s.c.) and then sacrificed. Animals were killed by decapitation, and blood was collected into tubes containing ethylenediaminetetraacetic acid for pharmacokinetic analysis; brains were quickly dissected, frozen on dry ice, and stored at −80°C until analysis. Brain tissues were homogenized in 19 (for rat tissues) or 39 (for mouse tissue) volumes of homogenization buffer (10 mmol/L HEPES pH 7.4, 50 mmol/L LiCl, 150 mmol/L NaCl, and 1% Triton X‐100), and the homogenate was incubated on a rotator for 1 hour, followed by centrifugation. The supernatant was diluted with 39 (for rat tissues) or 19 (for mouse tissues) volumes of dilution buffer (10 mmol/L HEPES pH 7.4, 50 mmol/L LiCl, and 150 mmol/L NaCl). IP1 and protein concentrations in the diluted supernatant were measured using IP‐One HTRF assay kit (Cisbio Bioassays) and BCA Protein Assay Kit (Thermo Fisher Scientific Inc), respectively, according to the manufacturers’ instructions. IP1 production was expressed as the ratio of IP1 to protein concentrations.

[2] = tested on: IP1 production in the rat hippocampus; assay: In vivo IP1 assay, rat hippocampus; conditions: LiCl 10 mmol/kg s.c., vs vehicle
Procedure: as §1

[3] = target: T1, human M1R (Homo sapiens, UniProt P11229); assay: [3H]‐pirenzepine binding assay (cooperativity, allosteric ternary complex model); parameters: expressed in transfected cells; conditions: between PAM and ACh; for Cooperativity Log α: 95% confidence intervals in parentheses
T1 sequence (P11229 1-460): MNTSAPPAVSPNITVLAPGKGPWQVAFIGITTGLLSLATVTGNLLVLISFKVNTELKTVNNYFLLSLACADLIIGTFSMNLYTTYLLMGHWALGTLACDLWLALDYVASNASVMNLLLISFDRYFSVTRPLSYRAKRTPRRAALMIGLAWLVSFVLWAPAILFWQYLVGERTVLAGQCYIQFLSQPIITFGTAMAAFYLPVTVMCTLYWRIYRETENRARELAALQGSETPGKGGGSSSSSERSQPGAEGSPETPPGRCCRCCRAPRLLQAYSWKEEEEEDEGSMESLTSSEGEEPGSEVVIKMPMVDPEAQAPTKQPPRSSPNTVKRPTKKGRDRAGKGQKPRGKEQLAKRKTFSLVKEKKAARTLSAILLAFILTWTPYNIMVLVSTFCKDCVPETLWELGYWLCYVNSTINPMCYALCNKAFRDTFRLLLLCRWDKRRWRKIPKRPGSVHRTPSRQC
Procedure: Cell membranes from FreeStyle 293 cells transiently expressing human M1R were incubated with T‐495 or MK‐7622 (0.1‐30 μmol/L), ACh (0.003‐3000 μmol/L), and 4 nmol/L [^3H]‐pirenzepine (PerkinElmer) in assay buffer (20 mmol/L HEPES, 100 mmol/L NaCl, 10 mmol/L MgCl2, and 0.1% fatty acid free BSA) for 2 hours at room temperature. The binding was terminated by filtration through GF/C filter plates (PerkinElmer) using a cell harvester (PerkinElmer) and five washed with 300 μL of 50 mmol/L Tris‐HCl. The GF/C plates were dried at 42°C; then, 25 μL of microscint 0 (PerkinElmer) was added. Radioactivity was counted using Topcount (PerkinElmer). Nonspecific binding was defined in the presence of 10 μmol/L atropine. To calculate the cooperativity of a PAM, the [^3H]‐pirenzepine binding assay data were fitted to the allosteric ternary complex model,35 using GraphPad Prism 5 software: Y=C/KC+αBC[B][C]/KBKC/1+A/KA+B/KB+C/KC+αAB[A][B]/KAKB+αBC[B][C]/KBKC
where Y is the fractional specific [^3H]‐pirenzepine binding; [A], [B], and [C] are the concentrations of ACh, a PAM, and [^3H]‐pirenzepine, respectively; K A, K B, and K C are the equilibrium dissociation constants of ACh, a PAM, and [^3H]‐pirenzepine, respectively; and αAB and αBC are the cooperativities between a PAM and ACh or [^3H]‐pirenzepine, respectively.

[4] = tested on: IP1 production in the mouse hippocampus; assay: In vivo IP1 assay after repeated administration for 13 days; conditions: for Basal IP1 level in the mouse hippocampus: after repeated treatment 10 mg/kg p.o. for 13 days, mean ± SEM, n = 10; for magnitude of IP1 increase in mouse hippocampus after 13 days of pretreatment: pretreatment 10 mg/kg p.o. once daily, vs single administration
Procedure: as §1

[5] = tested on: SD rats
Procedure: Seven‐ or 8‐week‐old SD rats were individually placed into observation cages. After an acclimation period of at least 1 hour, a test compound was administered to the rats. […] Cholinergic side effects, including diarrhea, lacrimation, salivation, miosis, and fasciculation, were assessed blindly, as described previously,27 and convulsion was scored using a modified Racine scale,37 as follows: stage 0, normal; stage 1, immobility; stage 2, forelimb and/or tail extension and rigid posture; stage 3, repetitive movements, head nodding, and gnawing; stage 4, rearing and falling; stage 5, continuous rearing and falling; stage 6, severe tonic‐clonic seizure with loss of postural control; and stage 7, death in the first 2 hours.

[6] = brain (hippocampus), rat hippocampus, 3 mg/kg p.o., read-out: Brain concentration
[7] = brain (hippocampus), rat hippocampus, 10 mg/kg p.o., read-out: Brain concentration
[8] = plasma, rat, 3 mg/kg p.o., n = 6, read-out: Plasma concentration
[9] = plasma, rat, 10 mg/kg p.o., n = 6, read-out: Plasma concentration
[10] = rats, 1 mg/kg p.o., observed 15 min to 8 h, rats with effect/total
[11] = rats, 3 mg/kg p.o., observed 15 min to 8 h, rats with effect/total
[12] = rats, 10 mg/kg p.o., observed 15 min to 8 h, rats with effect/total
[13] = rats, 30 mg/kg p.o., observed 15 min to 8 h, rats with effect/total
[14] = rats, 100 mg/kg p.o., observed 15 min to 8 h, rats with effect/total
[15] = rats, T-495 0.3 mg/kg p.o. alone, combination study, rats with effect/total
[16] = rats, donepezil 0.1 mg/kg + T-495 0.3 mg/kg p.o., rats with effect/total

`Cc1c(Cc2ccc(Cl)nc2)cc2c(c1Cl)OCN([C@H]1CCC[C@@H]1O)C2=O` [T‐495, 8‐chloro‐6‐((6‐chloropyridin‐3‐yl)methyl)‐3‐((1S,2S)‐2‐hydroxycyclopentyl)‐7‐methyl‐2,3‐dihydro‐4H‐1,3‐benzoxazin‐4‐one] gave a concentration at 2 h [1, 6] of 66.2 ± 18.5 ng/g, a concentration at 2 h [1, 7] of 304 ± 82.8 ng/g and a concentration at 2 h ([1]; brain (hippocampus), rat hippocampus, 30 mg/kg p.o., read-out: Brain concentration) of 1000 ± 330 ng/g. For the same compound, the Kp at 2 h ([1]; rat, 3 mg/kg p.o.) was 1.4 ± 0.1, the Kp at 2 h ([1]; rat, 10 mg/kg p.o.) was 1 ± 0.1 and the Kp at 2 h ([1]; rat, 30 mg/kg p.o.) was 1 ± 0.1. For the same compound, the concentration at 2 h [1, 8] was 49.6 ± 14.5 ng/mL, the concentration at 2 h [1, 9] was 298 ± 75.2 ng/mL and the concentration at 2 h ([1]; plasma, rat, 30 mg/kg p.o., n = 6, read-out: Plasma concentration) was 1050 ± 358 ng/mL. For the same compound, the “IP1 production in the rat hippocampus” value ([2]; 10 mg/kg p.o.) was “significantly increased”, the “IP1 production in the rat hippocampus” value ([2]; 30 mg/kg p.o.) was “significantly increased” and the “Cooperativity α” value [3] was 170. The “Cooperativity Log α” value [3] was 2.23 (2.07‐2.40), the “Basal IP1 level in the mouse hippocampus” value [4] was 1.09± 0.03 nmol/mg protein and the “magnitude of IP1 increase in mouse hippocampus after 13 days of pretreatment” value [4] was “comparable to those after single administration”. The “dose difference between memory improvement and induction of cholinergic side effects, including diarrhea” value ([5]; rats) was 100 fold, the Convulsion [5, 10] was 0/6 and the Fasciculation [5, 10] was 0/6. The Lacrimation [5, 10] was 0/6, the “Loose or mucous stool or diarrhea” value [5, 10] was 0/6 and the Miosis [5, 10] was 0/6. The Salivation [5, 10] was 0/6, the Convulsion [5, 11] was 0/6 and the Fasciculation [5, 11] was 0/6. For the same compound, the Lacrimation [5, 11] was 0/6, the “Loose or mucous stool or diarrhea” value [5, 11] was 0/6 and the Miosis [5, 11] was 0/6. The Salivation [5, 11] was 0/6, the Convulsion [5, 12] was 0/6 and the Fasciculation [5, 12] was 0/6. The Lacrimation [5, 12] was 0/6, the “Loose or mucous stool or diarrhea” value [5, 12] was 0/6 and the Miosis [5, 12] was 0/6. For the same compound, the Salivation [5, 12] was 0/6, the Convulsion [5, 13] was 0/6 and the Fasciculation [5, 13] was 0/6. The Lacrimation [5, 13] was 0/6, the “Loose or mucous stool or diarrhea” value [5, 13] was 0/6 and the Miosis [5, 13] was 0/6. For the same compound, the Salivation [5, 13] was 0/6, the Convulsion [5, 14] was 1/6 and the Fasciculation [5, 14] was 0/6. For the same compound, the Lacrimation [5, 14] was 0/6, the “Loose or mucous stool or diarrhea” value [5, 14] was 5/6 and the Miosis [5, 14] was 0/6. The Salivation [5, 14] was 1/6, the diarrhea score ([5]; rats, 100 mg/kg p.o., vs vehicle) was “significantly increased” and the Convulsion [5, 15] was 0/6. For the same compound, the Fasciculation [5, 15] was 0/6, the Lacrimation [5, 15] was 0/6 and the “Loose, mucous stool, or diarrhea” value [5, 15] was 0/6. The Myosis [5, 15] was 0/6, the Salivation [5, 15] was 0/6 and the “cholinergic side effects, combination with donepezil” value ([5]; rats, T‐495 0.3 mg/kg + donepezil 0.1 mg/kg) was “no cholinergic side effects were observed”. The Convulsion [5, 16] was 0/6, the Fasciculation [5, 16] was 0/6 and the Lacrimation [5, 16] was 0/6. The “Loose, mucous stool, or diarrhea” value [5, 16] was 0/6, the Myosis [5, 16] was 0/6 and the Salivation [5, 16] was 0/6. For the same compound, the cholinergic side effects ([5]; rats, doses up to 30 mg/kg p.o.) was “did not elicit any cholinergic side effects”.

`Cc1ccc(Cc2cc3c(=O)n([C@H]4CCCC[C@@H]4O)cnc3c3ccccc23)cn1` [MK‐7622, 3‐((1S,2S)‐2‐hydroxycyclohexyl)‐6‐((6‐methylpyridin‐3‐yl)methyl)benzo[h]quinazolin‐4(3H)‐one, reference compound] gave a concentration at 2 h ([1]; brain (hippocampus), rat hippocampus, 1 mg/kg p.o., read-out: Brain concentration) of 14.5 ± 6.3 ng/g, a concentration at 2 h [1, 6] of 39.3 ± 5.6 ng/g and a concentration at 2 h [1, 7] of 220 ± 72.2 ng/g. For the same compound, the Kp at 2 h ([1]; rat, 1 mg/kg p.o.) was 0.14 ± 0.04, the Kp at 2 h ([1]; rat, 3 mg/kg p.o.) was 0.19 ± 0.04 and the Kp at 2 h ([1]; rat, 10 mg/kg p.o.) was 0.23 ± 0.02. The concentration at 2 h ([1]; plasma, rat, 1 mg/kg p.o., n = 6, read-out: Plasma concentration) was 99.2 ng/mL, the concentration at 2 h [1, 8] was 218 ± 42.9 ng/mL and the concentration at 2 h [1, 9] was 944 ± 246 ng/mL. For the same compound, the “IP1 production in the rat hippocampus” value ([2]; 10 mg/kg p.o.) was “significantly increased”, the “Cooperativity α” value [3] was 511 and the “Cooperativity Log α” value [3] was 2.71 (2.48‐2.94). For the same compound, the “Basal IP1 level in the mouse hippocampus” value [4] was 0.99± 0.05 nmol/mg protein, the “magnitude of IP1 increase in mouse hippocampus after 13 days of pretreatment” value [4] was “comparable to those after single administration” and the Convulsion ([5]; SD, rat, in vivo, po, 3 mg/kg) was 0/6. The Fasciculation ([5]; SD, rat, in vivo, po, 3 mg/kg) was 0/6, the Lacrimation ([5]; SD, rat, in vivo, po, 3 mg/kg) was 0/6 and the “Loose or mucous stool or diarrhea” value ([5]; SD, rat, in vivo, po, 3 mg/kg) was 2/6. For the same compound, the Miosis ([5]; SD, rat, in vivo, po, 3 mg/kg) was 0/6, the Salivation ([5]; SD, rat, in vivo, po, 3 mg/kg) was 0/6 and the Convulsion ([5]; SD, rat, in vivo, po, 10 mg/kg) was 0/6. For the same compound, the Fasciculation ([5]; SD, rat, in vivo, po, 10 mg/kg) was 0/6, the Lacrimation ([5]; SD, rat, in vivo, po, 10 mg/kg) was 0/6 and the “Loose or mucous stool or diarrhea” value ([5]; SD, rat, in vivo, po, 10 mg/kg) was 3/6. For the same compound, the Miosis ([5]; SD, rat, in vivo, po, 10 mg/kg) was 0/6, the Salivation ([5]; SD, rat, in vivo, po, 10 mg/kg) was 0/6 and the Convulsion ([5]; SD, rat, in vivo, po, 30 mg/kg) was 0/6. For the same compound, the Fasciculation ([5]; SD, rat, in vivo, po, 30 mg/kg) was 0/6, the Lacrimation ([5]; SD, rat, in vivo, po, 30 mg/kg) was 0/6 and the “Loose or mucous stool or diarrhea” value ([5]; SD, rat, in vivo, po, 30 mg/kg) was 6/6. For the same compound, the Miosis ([5]; SD, rat, in vivo, po, 30 mg/kg) was 0/6, the Salivation ([5]; SD, rat, in vivo, po, 30 mg/kg) was 0/6 and the “dose difference between memory improvement and induction of cholinergic side effects, including diarrhea” value ([5]; rat, in vivo) was “onefold”. The diarrhea score ([5]; rat, in vivo, po, 3 mg/kg) was “tended to increase”.
